# Publication PMC9848300, “Discovery of novel enasidenib analogues targeting inhibition of mutant isocitrate dehydrogenase 2 as antileukaemic agents” (Journal of Enzyme Inhibition and Medicinal Chemistry, 2023)
# Values joined by “and” are separate entries in the source; they are usually repeats but may differ in a detail not shown here. Equal values may be shown once.
# Assays:
# HL-60(TB) = test: NCI 60 antitumor screening (single dose / five doses); format: cell-based; conditions: Homo sapiens; for inhibition at 10 µM: HL-60(TB) (leukaemia), single dose 10 μM, read-out: Growth inhibition percentage (GI %)
# K-562 = test: as above; format: cell-based; conditions: Homo sapiens, K562; for inhibition at 10 µM: K-562 (leukaemia), single dose 10 μM, read-out: Growth inhibition percentage (GI %)
# HOP-92 = test: as above; format: cell-based; conditions: Homo sapiens; for inhibition at 10 µM: HOP-92 (non-small cell lung cancer), single dose 10 μM, read-out: Growth inhibition percentage (GI %)
# MCF7 = test: NCI 60 antitumor screening (single dose); format: cell-based; conditions: Homo sapiens; MCF7 (breast cancer), single dose 10 μM; read-out: Growth inhibition percentage (GI %)
# Summary of the method: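 Read-out is percent growth (G%) of treated cancer cells relative to untreated, converted to percent inhibition as 100 − G%. Each compound was applied once at 10 μM across 60 human tumour lines under the NCI protocol.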
# SF-268 = test: NCI 60 antitumor screening (single dose); format: cell-based; conditions: Homo sapiens; SF-268 (CNS cancer), single dose 10 μM; read-out: Growth inhibition percentage (GI %)
# Summary of the method: (§1)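 NCI-60 protocol: single 10 μM dose against each cell line, run in triplicate. Percent growth (G%) of treated cells measured and growth inhibition reported as GI% = 100 − G%; panel mean also given.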
# COLO 205 = test: NCI 60 antitumor screening (single dose / five doses); format: cell-based; conditions: Homo sapiens; for inhibition at 10 µM: COLO 205 (colon cancer), single dose 10 μM, read-out: Growth inhibition percentage (GI %)
# HCT-116 = test: as above; format: cell-based; conditions: Homo sapiens; for inhibition at 10 µM: HCT-116 (colon cancer), single dose 10 μM, read-out: Growth inhibition percentage (GI %)
# HCT-15 = test: as above; format: cell-based; conditions: Homo sapiens; for inhibition at 10 µM: HCT-15 (colon cancer), single dose 10 μM, read-out: Growth inhibition percentage (GI %)
# HT29 = test: as above; format: cell-based, human; conditions: Homo sapiens; for inhibition at 10 µM: HT-29, HT29 (colon cancer), single dose 10 μM, read-out: Growth inhibition percentage (GI %)
# SF-539 = test: as above; format: cell-based; conditions: Homo sapiens; for inhibition at 10 µM: SF-539 (CNS cancer), single dose 10 μM, read-out: Growth inhibition percentage (GI %)
# SNB-75 = test: as above; format: cell-based; conditions: Homo sapiens; for inhibition at 10 µM: SNB-75 (CNS cancer), single dose 10 μM, read-out: Growth inhibition percentage (GI %)
# LOX IMVI = test: as above; format: cell-based; conditions: Homo sapiens; for inhibition at 10 µM: LOX IMVI (melanoma), single dose 10 μM, read-out: Growth inhibition percentage (GI %)
# MDA-MB-435 = test: as above; format: cell-based; conditions: Homo sapiens; for inhibition at 10 µM: MDA-MB-435 (melanoma), single dose 10 μM, read-out: Growth inhibition percentage (GI %)
# SK-MEL-2 = test: as above; format: cell-based; conditions: Homo sapiens; for inhibition at 10 µM: SK-MEL-2 (melanoma), single dose 10 μM, read-out: Growth inhibition percentage (GI %)
# SK-MEL-28 = test: as above; format: cell-based; conditions: Homo sapiens; for inhibition at 10 µM: SK-MEL-28 (melanoma), single dose 10 μM, read-out: Growth inhibition percentage (GI %)
# UACC-257 = test: as above; format: cell-based; conditions: Homo sapiens; for inhibition at 10 µM: UACC-257 (melanoma), single dose 10 μM, read-out: Growth inhibition percentage (GI %)
# UACC-62 = test: as above; format: cell-based; conditions: Homo sapiens; for inhibition at 10 µM: UACC-62 (melanoma), single dose 10 μM, read-out: Growth inhibition percentage (GI %)
# IGROV1 = test: as above; format: cell-based; conditions: Homo sapiens, IGROV-1; for inhibition at 10 µM: IGROV1 (ovarian cancer), single dose 10 μM, read-out: Growth inhibition percentage (GI %)
# 786-0 = test: as above; format: cell-based; conditions: Homo sapiens; for inhibition at 10 µM: 786-0, 786-0 (renal cancer), single dose 10 μM, read-out: Growth inhibition percentage (GI %)
# A498 = test: as above; format: cell-based; conditions: Homo sapiens; for inhibition at 10 µM: A498 (renal cancer), single dose 10 μM, read-out: Growth inhibition percentage (GI %)
# ACHN = test: as above; format: cell-based; conditions: Homo sapiens; for inhibition at 10 µM: ACHN (renal cancer), single dose 10 μM, read-out: Growth inhibition percentage (GI %)
# RXF 393 = test: as above; format: cell-based; conditions: Homo sapiens; for inhibition at 10 µM: RXF 393 (renal cancer), single dose 10 μM, read-out: Growth inhibition percentage (GI %)
# SN 12C = test: as above; format: cell-based; conditions: Homo sapiens, SN12C; for inhibition at 10 µM: SN 12C (renal cancer), single dose 10 μM, read-out: Growth inhibition percentage (GI %)
# UO-31 = test: as above; format: cell-based; conditions: Homo sapiens; for inhibition at 10 µM: UO-31 (renal cancer), single dose 10 μM, read-out: Growth inhibition percentage (GI %)
# DU-145 = test: as above; format: cell-based; conditions: Homo sapiens; for inhibition at 10 µM: DU-145 (prostate cancer), single dose 10 μM, read-out: Growth inhibition percentage (GI %)
# MDA-MB-231/ATCC = test: as above; format: cell-based; conditions: Homo sapiens; for inhibition at 10 µM: MDA-MB-231/ATCC (breast cancer), single dose 10 μM, read-out: Growth inhibition percentage (GI %)
# BT-549 = test: as above; format: cell-based; conditions: Homo sapiens; for inhibition at 10 µM: BT-549 (breast cancer), single dose 10 μM, read-out: Growth inhibition percentage (GI %)
# T-47D = test: as above; format: cell-based; conditions: Homo sapiens, T47D; for inhibition at 10 µM: T-47D (breast cancer), single dose 10 μM, read-out: Growth inhibition percentage (GI %)
# [1] = tested on: 60 human subpanel cancer cell lines; test: NCI 60 antitumor screening, mean over the panel (single dose); format: cell-based; conditions: mean over 60 cancer cell lines, single dose 10 μM
# Summary of the method: as §1
smiles,measurement,setting,value
"Fc1cccc(Cl)c1/C=N/Nc1nc(N/N=C/c2c(F)cccc2Cl)nc(N2CCCCC2)n1 [compound 7l, 2,4-Bis[(E)-2-[(2-Chloro-6-fluorophenyl)methylidene]hydrazin-1-yl]-6-(piperidin-1-yl)-1,3,5-triazine]",inhibition at 10 µM,HL-60(TB),98.7%
same,GI50,"HL-60(TB); HL-60(TB), five doses (0.01–100 μM), read-out: GI50",2000 nM
same,inhibition at 10 µM,K-562,67.7%
same,GI50,"K-562; K-562, five doses (0.01–100 μM), read-out: GI50",3080 nM
same,inhibition at 10 µM,HOP-92,101%
same,GI50,"HOP-92; HOP-92, five doses (0.01–100 μM), read-out: GI50",1470 nM
same,inhibition at 10 µM,MCF7,96.9%
same,inhibition at 10 µM,SF-268,63.3%
same,inhibition at 10 µM,COLO 205,117%
same,GI50,"COLO 205; COLO 205, five doses (0.01–100 μM), read-out: GI50",1780 nM
same,inhibition at 10 µM,HCT-116,80.5%
same,GI50,"HCT-116; HCT-116, five doses (0.01–100 μM), read-out: GI50",2830 nM
same,inhibition at 10 µM,HCT-15,96.1%
same,GI50,"HCT-15; HCT-15, five doses (0.01–100 μM), read-out: GI50",2820 nM
same,GI50,"HT29; HT-29, HT29, five doses (0.01–100 μM), read-out: GI50",2900 nM
same,inhibition at 10 µM,HT29,96.5%
same,inhibition at 10 µM,SF-539,43.8%
same,GI50,"SF-539; SF-539, five doses (0.01–100 μM), read-out: GI50",7650 nM
same,inhibition at 10 µM,SNB-75,62.5%
same,GI50,"SNB-75; SNB-75, five doses (0.01–100 μM), read-out: GI50",2360 nM
same,inhibition at 10 µM,LOX IMVI,80.4%
same,GI50,"LOX IMVI; LOX IMVI, five doses (0.01–100 μM), read-out: GI50",3770 nM
same,inhibition at 10 µM,MDA-MB-435,96.2%
same,GI50,"MDA-MB-435; MDA-MB-435, five doses (0.01–100 μM), read-out: GI50",2860 nM
same,inhibition at 10 µM,SK-MEL-2,126%
same,GI50,"SK-MEL-2; SK-MEL-2, five doses (0.01–100 μM)",1690 nM
same,inhibition at 10 µM,SK-MEL-28,55.1%
same,GI50,"SK-MEL-28; SK-MEL-28, five doses (0.01–100 μM), read-out: GI50",3410 nM
same,inhibition at 10 µM,UACC-257,88.3%
same,GI50,"UACC-257; UACC-257, five doses (0.01–100 μM), read-out: GI50",2390 nM
same,inhibition at 10 µM,UACC-62,81.7%
same,GI50,"UACC-62; UACC-62, five doses (0.01–100 μM), read-out: GI50",2350 nM
same,inhibition at 10 µM,IGROV1,82.3%
same,GI50,"IGROV1; IGROV1, five doses (0.01–100 μM), read-out: GI50",3160 nM
same,inhibition at 10 µM,786-0,71.7%
same,GI50,"786-0; 786-0, five doses (0.01–100 μM), read-out: GI50",3440 nM
same,inhibition at 10 µM,A498,47.2%
same,GI50,"A498; A498, five doses (0.01–100 μM), read-out: GI50",2400 nM
same,inhibition at 10 µM,ACHN,95.8%
same,GI50,"ACHN; ACHN, five doses (0.01–100 μM), read-out: GI50",3040 nM
same,inhibition at 10 µM,RXF 393,96.6%
same,GI50,"RXF 393; RXF 393, five doses (0.01–100 μM), read-out: GI50",2650 nM
same,inhibition at 10 µM,SN 12C,76.8%
same,GI50,"SN 12C; SN 12C, five doses (0.01–100 μM), read-out: GI50",2850 nM
same,inhibition at 10 µM,UO-31,91%
same,GI50,"UO-31; UO-31, five doses (0.01–100 μM), read-out: GI50",2010 nM
same,inhibition at 10 µM,DU-145,39%
same,GI50,"DU-145; DU-145, five doses (0.01–100 μM), read-out: GI50",11700 nM
same,GI50,"MDA-MB-231/ATCC; MDA-MB-231/ ATCC, five doses (0.01–100 μM), read-out: GI50",7650 nM
same,inhibition at 10 µM,MDA-MB-231/ATCC,57.9%
same,inhibition at 10 µM,BT-549,31.6%
same,GI50,"BT-549; BT-549, five doses (0.01–100 μM), read-out: GI50",4450 nM
same,inhibition at 10 µM,T-47D,89%
same,GI50,"T-47D; T-47D, five doses (0.01–100 μM), read-out: GI50",1710 nM
same,Mean GI %,[1],81% and 81.15%
"O=C1Nc2ccc(Cl)cc2/C1=N\Nc1nc(N/N=C2/C(=O)Nc3ccc(Cl)cc32)nc(N2CCOCC2)n1 [compound 8b, (3E)-5-Chloro-3-[2–(4-{2-[(3E)-5-chloro-2-oxo-2,3-dihydro-1H-indol-3-ylidene]hydrazin-1-yl}6-(morpholin-4-yl)-1,3,5-triazin-2-yl)hydrazin-1-ylidene]-2,3-dihydro-1H-indol-2-one]",inhibition at 10 µM,HL-60(TB),27.8%
same,inhibition at 10 µM,K-562,67.1%
same,inhibition at 10 µM,HOP-92,74%
same,inhibition at 10 µM,MCF7,56.9%
same,inhibition at 10 µM,SF-268,50.9%
same,inhibition at 10 µM,COLO 205,51.3%
same,inhibition at 10 µM,HCT-116,54.6%
same,inhibition at 10 µM,HCT-15,8.4%
same,inhibition at 10 µM,HT29,8.9%
same,inhibition at 10 µM,SF-539,84%
same,inhibition at 10 µM,SNB-75,101%
same,inhibition at 10 µM,LOX IMVI,76.8%
same,inhibition at 10 µM,MDA-MB-435,36.5%
same,inhibition at 10 µM,SK-MEL-2,34.7%
same,inhibition at 10 µM,SK-MEL-28,45%
same,inhibition at 10 µM,UACC-257,18%
same,inhibition at 10 µM,UACC-62,48.4%
same,inhibition at 10 µM,IGROV1,45%
same,inhibition at 10 µM,786-0,26.3%
same,inhibition at 10 µM,A498,78.4%
same,inhibition at 10 µM,ACHN,25.5%
same,inhibition at 10 µM,RXF 393,86.3%
same,inhibition at 10 µM,SN 12C,56.1%
same,inhibition at 10 µM,UO-31,21.4%
same,inhibition at 10 µM,DU-145,11.6%
same,inhibition at 10 µM,MDA-MB-231/ATCC,63.7%
same,inhibition at 10 µM,BT-549,106%
same,inhibition at 10 µM,T-47D,70.7%
same,Mean GI %,[1],47.89%
